Consider three compounds from patent US11583506B1, “Cannabinoids for use in suppressing cancer stem cells” (VIVACELL BIOTECHNOLOGY ESPAÑA S.L.U., priority 2020, dated 2023).

Entries after “also recorded” stand apart in the source; their conditions may differ.

Common to all, as to assay type: cell-based, human
For one experiment, the system named is HCT 116 cells. In words: tumorospheres (colonospheres) formation assay. As to conditions: 7 days of treatment, 1, 2.5, 5 and 10 μM, vs vehicle (DMSO). The text has this: Cancer stem cells (CSC) cultured 3-dimentionally in a serum-free medium supplemented with growth factors are able to form floating spheroids known as tumorospheres (Reynolds B A et al. Dev Biol. 1996; 175(1):1-13. doi:10.1006/dbio.1996.0090; Singh S K et al. Cancer Res. 2003; 63(18):5821-8. PMID: 14522905). These cancer cells-derived spheroids have been proven to display CSCs characteristics and recapitulate in vitro the in vivo conditions of cancer growth becoming an ideal model to evaluate anti-CSC drugs (Dieter S M et al. Cell Stem Cell. 2011; 9(4):357-65. doi: 10.1016/j.stem.2011.08.010. PMID: 21982235; Lee C H et al. Oncotarget. 2016; 7(2):1215-26. doi: 10.18632/oncotarget.6261. PMID: 26527320).
To study the CBD effect on colonospheres proliferation, a tumorospheres formation assay was performed. Briefly, human colorectal carcinoma HCT 116 cells (ATCC No. CCL-247) were trypsinized, quantified and seeded at clonal density (5 cell/μL) in ultra-low attachment surface 96-well plates (Corning-Costar. Coming, N.Y., USA) with serum free Dulbecco's Modified Eagle's Medium (DMEM)/Nutrient Mixture F-12 Ham (Sigma-Aldrich. St. Louis, Mo., USA) supplemented with 1X B-27 (Invitrogen, Carlsbad, Calif., USA), 10 ng/mL basic fibroblast growth factor (bFGF; PeproTech. London, UK), 20 ng/mL epidermal growth factor (EGF; Santa Cruz Biotechnology, Heidelberg, Germany), 1% (v/v) methylcellulose (R&D Systems. Minneapolis, Minn., USA) to prevent cell aggregation and the corresponding dose of vehicle (DMSO) or CBD concentration (1, 2.5, 5 and 10 μM). Every 2-3 days freshly supplements were added and the number and size of colonospheres were analysed by optical microscopy 1 week after seeding.

The test system of experiment [1] is Notch1. Nature of the experiment: Notch1 levels in HCT 116 cells by western blot. The note with it: for Notch1 levels, panel of natural cannabinoids / Notch1 expression levels, concentration dependence: HCT 116 cells; for Notch1 levels, panel of natural cannabinoids: 24 hours, 10 μM; for Notch1 expression levels, concentration dependence: 24 hours, 1, 2.5, 5 and 10 μM. On the procedure:
(§1) In cancer stem cells Notch1 signalling pathway is abnormally activated (Venkatesh V et al. Stem Cell Investig. 2018 Mar. 12; 5:5. doi: 10.21037/sci.2018.02.02. PMID: 29682512). For this reason, to further analyse the anti-proliferative CBD effect on colonospheres formation, Notch1 expression was investigated by western blot analysis. Briefly, after treatments, the colonospheres were washed with PBS1X and whole-cell proteins were extracted in 50 μL of lysis buffer (50 mM Tris-HCl pH 7.5, 150 mM NaCl, 10% glycerol and 1% NP-40) supplemented with 10 mM NaF, 1 mM Na3VO4, 10 μg/mL leupeptine, 1 μg/mL pepstatin and aprotinin, and 1 μL/mL phenylmethylsulfonyl fluoride saturated. Protein concentration of the whole-cell lysates was quantified by absorbance at 595 nm using Bradford reagent compared to a bovine serum albumin standard curve. Then, forty micrograms of protein were boiled at 95° C. in Laemmli buffer and electrophoresed in 10% SDS/PAGE gels. Separated proteins were transferred to polyvinylidene difluoride (PVDF) membranes (20V for 30 min) and blocked in TBSIX solution containing 0.1% Tween 20 and 5% non-fat dry milk for 1 hour at room temperature. Immunodetection of specific proteins was carried out by incubation with primary antibody against human Notch1 (1:1000 dilution. Ref. #ab52627, Abcam. Cambridge, UK) and β-actin (1:10.000 dilution. Ref. #A5316, Sigma-Aldrich. St. Louis, Mo., USA) overnight at 4° C. After washing membranes, horseradish peroxidase-conjugated secondary antibody was added and the protein bands on the membranes were detected with ECL reagent (BioRad. Hercules, Calif., USA) by chemiluminescence system (GE Healthcare Europe GmbH. Munich, Germany).
The densitometry analysis was performed using ImageJ software, and the quantified band intensities were normalized to Actin. […] Thus, it can be concluded that the reduction of Notch1 levels is critical to inhibit the colonospheres proliferation.
(§2) To gain insight into the CBD effect on Notch1 pathway, a deep study using the human colorectal carcinoma HCT 116 cell line (ATCC No. CCL-247) was performed to analyse Notch1 levels. […] Moreover, the Hes5 protein level, a Notch signalling-related protein, was also analysed by western blot following the methodology explained above and using a specific primary antibody (Human anti-Hes5. 1:1000 dilution. Ref. #ab25374, Abcam. Cambridge, UK). […] To further clarify the CBD mechanism of causing a reduced Notch1 expression, HCT 116 cells were incubated with the proteasome inhibitor MG132 and/or with CBD.
A panel of natural cannabinoids CBDA, CBDV, CBC, CBCA, CBCV, CBG, CBGA, CBGV, CBGVA, CBN, THC and THCA were evaluated in its capacity to reduce Notch1 levels in human colorectal carcinoma HCT 116 cell line. CBD was purchase from Endoca BV (Netherlands). CBDA, CBDV, CBCA, CBG, CBGA, THC and […] were purchased from Phytoplant Research S.L (Cordoba, Spain). CBC, CBCV, CBGV, CBGVA and CBN were provided by the laboratory of the Professor Giovanni Appendino from the University of Piemonte Orientale (Novara, Italy).
On the technique in general: Immunoblotting shows a protein as a band on a membrane.

Experiment [2] relates to Notch1. Nature of the experiment: Notch1 expression in colonospheres by western blot. As to conditions: colonospheres after 7 days of treatment, 1 and 5 μM, western blot normalized to Actin. On the procedure:
as §1, with “Separated proteins were transferred to polyvinylidene difluoride (PVDF) membranes (20V for 30 min) and blocked in TBSIX solution containing 0.1% Tween 20 and 5% non-fat dry milk for 1 hour at room temperature. Immunodetection of specific proteins was carried out by incubation with primary antibody against human Notch1 (1:1000 dilution. Ref. #ab52627, Abcam. Cambridge, UK) and β-actin (1:10.000 dilution. Ref. #A5316, Sigma-Aldrich. St. Louis, Mo., USA) overnight at 4° C.” left out
The densitometry analysis was performed using ImageJ software, and the quantified band intensities were normalized to Actin. […]

The subject of another experiment is Hes5. Nature of the experiment: Hes5 protein level in HCT 116 cells by western blot. As to conditions: 10 μM, 6, 16 and 24 hours. On the procedure:
as §1, with “Separated proteins were transferred to polyvinylidene difluoride (PVDF) membranes (20V for 30 min) and blocked in TBSIX solution containing 0.1% Tween 20 and 5% non-fat dry milk for 1 hour at room temperature. Immunodetection of specific proteins was carried out by incubation with primary antibody against human Notch1 (1:1000 dilution. Ref. #ab52627, Abcam. Cambridge, UK) and β-actin (1:10.000 dilution. Ref. #A5316, Sigma-Aldrich. St. Louis, Mo., USA) overnight at 4° C.” left out, “Germany). […]” for “Germany).”

In experiment [3] the test system is Notch1. Nature of the experiment: Notch1 degradation with proteasome inhibitor MG132 in HCT 116 cells. As to conditions: 24 hours, 10 μM CBD and/or 10 μM MG-132. The method, then:
as §2

Experiment [4] deals with Notch1. Nature of the experiment: Notch1 expression in Hct116 cancer cell line. As to conditions: Hct116 (Colon). On the procedure: (§3) The effect of CBGV on Notch1 expression levels was evaluated in a panel of cancer cell lines. Human colorectal carcinoma Hct116 (No. CCL-247), human colorectal adenocarcinoma HT-29 (No. HTB-38), human brain neuroblastoma SK—N—SH (No. HTB-11), human breast adenocarcinoma MDA-MB-231 (No. HTB-26), human prostate adenocarcinoma PC3 (No. CRL-1435), human prostate carcinoma DU-145 (No. HTB-81), human lung carcinoma A549 (No. CCL-185) and human lung carcinoma H1299 (No. CRL-5803) cell lines were obtained from the American Type Culture Collection (ATCC, USA).

Experiment [5] deals with Notch1. Nature of the experiment: Notch1 expression in HT-29 cancer cell line. As to conditions: HT-29 (Colon). The method, then: as §3
For experiment [6], the system named is Notch1. Nature of the experiment: Notch1 expression in SK-N-SH cancer cell line. The note with it: SK-N-SH (Brain). On the procedure:
as §3

The subject of experiment [7] is Notch1. Nature of the experiment: Notch1 expression in MDA-MB-231 cancer cell line. As to conditions: MDA-MB-231 (Breast). The method, then:
as §3

Experiment [8] deals with Notch1. In words: Notch1 expression in PC3 cancer cell line. The note with it: PC3 (Prostate). The method, then: as §3
For experiment [9], the system named is Notch1. In words: Notch1 expression in DU145 cancer cell line. The note with it: DU145 (Prostate). On the procedure:
as §3

The subject of experiment [10] is Notch1. In words: Notch1 expression in A549 cancer cell line. As to conditions: A549 (Lung). The method, then:
as §3

Experiment [11] concerns Notch1. Nature of the experiment: Notch1 expression in H1299 cancer cell line. The note with it: H1299 (Lung). The method, then: as §3

`C=C(C)[C@@H]1CCC(C)=C[C@H]1c1c(O)cc(CCC)cc1O` [CBDV, cannabidivarin]: the colonospheres formation entry in the experiment with HCT 116 cells is “potent dose-dependent anti-proliferative effect of colonospheres formation; also recorded: inhibit colonospheres formation”. Besides, in the experiment on Notch1 [1], the “Notch1 levels, panel of natural cannabinoids” value (shortened to “Notch1 levels, panel”) was “clearly diminished Notch1 levels; also recorded: reduce Notch1 expression levels” and the “Notch1 expression levels, concentration dependence” value is “reduce Notch1 expression levels in a concentration-dependent manner”.

As to `C=C(C)[C@@H]1CCC(C)=C[C@H]1c1c(O)cc(CCCCC)cc1O` [CBD, cannabidiol], the colonospheres formation entry in the experiment with HCT 116 cells was “significantly reduces the colonospheres formation in a clear dose-dependent manner”. Also, the “Notch1 levels in colonospheres” value in the experiment with Notch1 [2] is reported as “clearly diminished in a dose-dependent manner; also recorded: reduces Notch1 expression levels in colonospheres”. In addition, the “Notch1 protein levels in HCT 116 cells (dose and time dependence)” value in the experiment with Notch1 [1] (1, 2.5, 5 and 10 μM for 24 hours, 10 μM at 6, 16 and 24 hours) was “reduces Notch1 protein levels in HCT 166 cells in a dose- and time-dependent manner; also recorded: reduces Notch1 expression levels in colonospheres and HCT 116 cells”. Besides, the “Notch1 levels, panel” value in the experiment on Notch1 [1] is given as “clearly diminished Notch1 levels; also recorded: reduce Notch1 expression levels”. Also, the Hes5 expression levels result in the experiment with Hes5 was “clearly reduces Hes5 expression levels in HCT 116 cells in a time-dependent manner; also recorded: reduces the expression of Hes5”. Moreover, in the experiment with Notch1 [3], the “Notch1 degradation through the proteasome” value is “induces Notch1 degradation by the proteasomal degradation machinery; also recorded: induces Notch1 degradation through the proteasome”.

On to `CCCc1cc(O)c(C/C=C(\C)CCC=C(C)C)c(O)c1` [CBGV, cannabigerovarin], for which the colonospheres formation result with HCT 116 cells is recorded as “potent dose-dependent anti-proliferative effect of colonospheres formation; also recorded: inhibit colonospheres formation”. The “Notch1 levels, panel” value in the experiment with Notch1 [1] is given as “clearly diminished Notch1 levels; also recorded: reduce Notch1 expression levels”. In the experiment with Notch1 [1], the “Notch1 expression levels, concentration dependence” value is on record as “reduce Notch1 expression levels in a concentration-dependent manner”. Also, the “Inhibition of Notch1 expression in cancer cells” value with Notch1 [4], in the experiment on Notch1 [5], with Notch1 [6], with Notch1 [7], in the experiment on Notch1 [8] and in the experiment with Notch1 [9] was “Yes” throughout. Besides, the “Inhibition of Notch1 expression in cancer cells” value in the experiment with Notch1 [10] and in the experiment on Notch1 [11] was “Yes” each time.
